Numbering of substitutions follows the chain as printed.
Experiments:
[1] = target: T1, isoMnSOD (Mus musculus, UniProt P09671, DEL77-115); assay: isoMnSOD peroxidative activity, cerebellum mitochondrial extracts on nitrocellulose strips (Example 20); type: biochemical; conditions: 1 μM of compound, 30 min at room temperature; cerebellum of 4 week mice; 1 mM hydrogen peroxide, luminol; FIG. 7
T1 construct: Mitochondrial pellets were lysed in 1% CHAPS detergent; from tissue; host or cells: mouse cerebellum mitochondria
T1 sequence (P09671 with tags, fused parts or gaps DEL77-115): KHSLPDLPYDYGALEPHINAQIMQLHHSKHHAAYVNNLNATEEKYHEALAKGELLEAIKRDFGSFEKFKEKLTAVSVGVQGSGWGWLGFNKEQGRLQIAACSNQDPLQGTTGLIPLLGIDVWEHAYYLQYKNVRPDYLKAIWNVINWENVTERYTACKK
Description: Protein extracts containing isoMnSOD were prepared from cerebellum from 4 week mice by first forming a liquid nitrogen powder, resuspended with five volumes of ice-cold lysis buffer (in mM: 20 HEPES-KOH, pH 7.5, 10 KCl, 1.5 MgCl2, 1 DTT, 1 EDTA, 1 EGTA, and 0.1 PMSF) containing 70 mM mannitol and 250 mM sucrose and homogenizing with a Dounce homogenizer. Extract was centrifuged at 750 g for 10 min at 4° C. and the supernatant was then centrifuged at 10,000 g for 15 min at 4° C. to pellet the mitochondrial pellet, which was then stored frozen. Mitochondrial pellets were lysed in 1% CHAPS detergent containing 50 mM Tris-Cl, pH 8.0, 500 mM NaCl and then loaded onto a native 5% polyacrylamide gel. Protein concentration was measured by using the Bradford protein assay kit. After transfer to nitrocellulose, nitrocellulose strips were incubated with 1 μM of compound in 50 mM Tris-HCl, 50 mM NaCl, 5 mM EDTA, pH 8.0 for 30 min at room temperature, then washed extensively with incubation buffer alone. The peroxidative activity of isoMnSOD was measured using 100 of Femtomole luminol (Pierce) containing 1 mM hydrogen peroxide per nitrocellulose strip and exposed to x-ray film.

[2] = tested on: AMP kinase phosphorylation at Thr172; assay: Doxorubicin-induced activation of AMP kinase in heart explants, western immunoblot (Example 22); type: cell-based; conditions: rat heart explants
Description: Hearts from 4 week rats were excised and minced without trypsin in 50:50 medium M199:MCDB 10% FBA containing 5 mM Creatine, 2 mM L-carnitine and 5 mM taurine. Explants were incubated overnight at 37° C. in a 5% CO2 incubator untreated (Lane 1), with 1 mM doxorubicin (Lane 2), and with 1 mM doxorubicin and 4 μM 2-(3,4-dihydroxy-phenyl)-N-heptadec-8-enyl-acetamide (IV) (Lane 3). Explants were frozen at −70° C., liquid nitrogen powders were prepared and lysed and denatured in 2% SDS with 5% BME with boiling for 5 min. Protein extracts were examined by western immunoblotting using a rabbit monoclonal recognizing Phospho-AMP Kinase-α (Thr172) (CellSignal).
The AMP kinase was activated by an elevated AMP(high)/ATP(low) ratio due to cellular and environmental stress, such as heat shock, hypoxia and ischemia. Elevated AMP/ATP ratio and activation of AMPK by phosphorylation at Thr172 can also occur by uncoupling mitochondrial oxidative phosphorylation from respiration with oligomycin and thereby loss of mitochondrial ATP synthesis.

[3] = target: T2, isoMnSOD (Rattus norvegicus, UniProt P07895, DEL77-115); assay: Immunodetection of isoMnSOD in treated cerebella explants (Example 24); type: cell-based; conditions: cerebella explants of 4 week rat, one hour at 37° C., 5 μM OA-diHPAc; western immunoblot
T2 construct: Cerebella explants from one 4 week rat, strain WKY; from tissue; host or cells: rat (WKY) cerebellum explants
T2 sequence (P07895 with tags, fused parts or gaps DEL77-115): T1 sequence (P09671 with tags, fused parts or gaps DEL77-115) with A33T, A40V, T151S, E152Q, T155I, A156V
Description: Immuno detection of isoMnSOD and measurement of isoMnSOD (a) and measurement of caspase 9 cleavage (b) in cerebella explants from 4 week old rat cerebellum and treated with 2-(3,4-dihydroxy-phenyl)-N-heptadec-8-enyl-acetamide (IV). Cerebella explants from one 4 week rat, strain WKY, were incubated in aerated 4 mL of M199:MCDB 10% FBS and incubated one hour at 37° C. in a roller bottle for maximum oxygenation, with or without 5 μM OA-diHPAc. Explants were harvested, quick frozen, and then lysed in boiling SDS and 5% BME and protein extracts were separated in a 4-12% polyacrylamide gel (Novex) and examined by western immunoblot. […] The peptide sequence used as the antigen to form the MnSOD E2/E4 antibody is at the active site of isoMnSOD and modification of isoMnSOD by 2-(3,4-dihydroxy-phenyl)-N-heptadec-8-enyl-acetamide (IV) appears to block epitope recognition. RT/PCR analysis of the MnSOD mRNAs confirmed that the mRNA encoding isoMnSOD is present in treated explants.

[4] = tested on: PC12 neuroendocrine cell line; assay: Hydrogen peroxide-mediated cell death, Live/Dead assay (Example 21); type: cell-based; conditions: PC12 preincubated with 4 μM for 1 hr, then 1 mM hydrogen peroxide, 20 hrs; FIG. 8
Description: Neuroendocrine cell line, PC12, was cultured in DMEM medium containing 10% FBS on plates treated with collagen. Freshly passed cells (1×10(7) cells) were preincubated with 4 μM 2-(3,4-dihydroxy-phenyl)-N-heptadec-8-enyl-acetamide (IV), 2-(2,5-dihydroxy-phenyl)-N-heptadec-8-enyl-acetamide (V) (containing about 30% impurity), or other compound for 1 hr and then treated with 1 mM hydrogen peroxide. After 20 hrs, cultures were examined by the Live/Dead assay (Molecular Probes).

[5] = tested on: Rats; assay: Doxorubicin-induced heart failure in rats (Example 23); type: in vivo, rat; conditions: IP 10 mg/kg doxorubicin, FIG. 10
Description: Rats were treated with IP injections of 10 mg/kg doxorubicin. Left Ventricular Developed Pressure (LVDP): Systolic Pressure-Diastolic Pressure, which is an indicator of ventricular systolic function; dP/dtmax: Maximal rate of pressure development, which is an indicator of ventricular systolic function; dP/dtmin Minimal rate of pressure development, which is an indicator of ventricular diastolic function.

[6] = tested on: isoMnSOD expression; assay: Doxorubicin induction of isoMnSOD expression in adult heart explants, Western Blot (Example 9); type: cell-based, rat; conditions: 3 days, 0.1 nM to 1.0 μM Doxorubicin in AdvDMEM 2% FBS, FIG. 3
Description: Briefly, after rats (5 weeks old) were killed by decapitation, the hearts were aseptically excised and residual blood was removed. The heart was perfused in Joklik's medium (containing Joklik's minimal essential medium, 25 mmol/L glutamic acid, 30 mmol/L taurine, and 1 mmol/L adenosine) without recirculation on a modified Langendorff apparatus for approximately 10 minutes at 37° C. The perfusion was then continued for 30 minutes at the same temperature, with recirculation in Joklik's medium containing collagenase type II (100 U/mL). After perfusion, the ventricles were cut into small pieces and tritulated in 0.05% Trypsin/EDTA for 10 min. Cardiac explants were cultured overnight on laminin-coated (20 μg per well) 35-mm six-well plates in medium 199 containing 5% FBS, 5 mM creatine, 2 mM L-carnitine, and 5 mM taurine. Explants were treated with doxorubicin (Sigma) shortly after plating for 24 hrs at 1 mM.

[7] = tested on: altMnSODreport reporter expression; assay: Reporter gene system (altMnSODreport) to analyze compounds for toxicity (Example 17); type: cell-based; conditions: cells comprising the reporter gene system; written in present tense
Description: The test reporter system utilizes a recombinant DNA construct that contains an in frame fusion of a genomic fragment spanning MnSOD Exon 2 to Exon 4, but which also harbors a mutant MnSOD Exon 3, (i.e. frameshift mutation), to a B-galactosidase gene, or Green Fluorescence Protein (“altMnSODreport”). Alternative splicing and skipping of MnSOD (coding) Exon 3 will result in a fusion protein comprising a short stretch of MnSOD E2 and E4 coding sequences N-terminal to a reporter protein; the MnSODE2E4 amino acid sequence is 20 amino acids and should not interfere with the expression of the reporter. […]
Breast cancer cell line, MDA-MB-435, Her-2/neu over-expressing (ATCC), fibroblast cells lines NIH3T3 and B104, which are NIH3T3 cells transfected with the rat ErbB2/Her2 oncogene, and normal primary cells (Clonetics; rat cardiomyocytes, donated by Kathryn Maschhoff, MD PhD, Neonatology, University of Pennsylvania) are treated with doxorubicin alone and in combination with the rat ErbB2/Her2 17.6.4 monoclonal antibody, which downregulates the human and rat Her2 receptor (Zhang et al., 1999) (Oncogene), and Herceptin™ (Genentech). It is also determined if the Her2 mAbs induces isoMnSOD expression in untransfected cells and cells transfected with altMnSODreport. […]

[8] = tested on: mitochondrial peroxidase activity (isoMnSOD); assay: Peroxidative assay (ROS-activity blot) of mitochondrial extracts from treated pancreatic explants (Example 12); type: cell-based, pig; conditions: pancreatic explant cultured 1 hr at 37° C. with equal volume of 2 μM compound, FIG. 1
Description: F10 medium was used throughout the procedure. Pancreas (8 grams) from a 3 kilo pig was minced, washed twice, and 1 g of tissue was resuspended in 5 ml of F10 medium. […] Explants were stored frozen at −70° C. Tissue was homogenized in Buffer A at 4° C. and mitochondria was isolated by differential centrifugation and stored frozen at −70° C. Peroxidative assay of native mitochondrial extracts analyzed by the ROS-activity blot.

[9] = tested on: isoMnSOD; assay: Drug inhibition method: peroxidative activity of isoMnSOD on PVDF strips (Example 4); conditions: 1 μM test compound in TBS, 30 minutes; pancreatic mitochondria native extracts on PVDF; 1 mM H2O2, luminol; FIG. 4
Description: Each test compound was prepared by mixing 5 μL of a 1 mM test compound stock solution in ethanol with 5 μL of 0.1 M KOH, followed by the addition of 5 ml of TBS for a final concentration of 1 μM test compound. Equal amounts of native protein extracts from pancreatic mitochondria (obtained according to the protocol of Example 5) were loaded in separate wells and resolved in a 7% PAGE gel without SDS, electrotransferred to PVDF and divided into strips. Each PVDF strip was incubated with 1 μM of test compound in TBS for 30 minutes, washed twice in TBS for 20 minutes, and the peroxidative activity of isoMnSOD was measured by incubation of each strip with 1 mM H2O2 in 0.4 ml of the luminol solution contained within the Femtomole chemiluminescence assay kit (Pierce) and exposed to x-ray film (FIG. 4).
All procedures were carried out at 4° C. Mitochondria were obtained from a liquid nitrogen powder of one pig pancreas (˜8 g), which was resuspended in 15 ml of buffer A containing following protease inhibitors: 1 μg/ml aprotinin, 1 μg/ml pepstatin A, 1 μg/ml chymostatin A, 2 μg/ml leupeptin, 2 μM benzamide hydrochloride, and 1 μM phenylmethylsulfonyl fluoride. Tissue was broken with a Potter homogenizer and the homogenate was centrifuged for 10 min at 800 g to remove cell debris. The supernatant was centrifuged at 10,000 g from 15 min to recover mitochondria. The mitochondrial pellet was washed twice with a hand held Dounce homogenizer and mitochondria were stored frozen. Mitochondria were lysed by slowly adding 1 ml of M-Per (Pierce) containing 1/10 vol 5M NaCl and 1/10 vol Buffer A. The mitochondrial lysate was subsequently clarified by centrifugation for 10 min at 2000 g.

[10] = tested on: isoMnSOD; assay: Inhibition of pro-oxidant activity of isoMnSOD, at least one of the assays of the Examples; conditions: according to at least one of the assays provided in the Examples
[11] = target: T3, MnSOD-Exon3-deleted isoform (isoMnSOD) (Homo sapiens, UniProt P04179); assay: Detection of inhibitors bound to isoMnSOD by combined immunoprecipitation/western blot (Example 13); type: binding; conditions: immunoprecipitation with anti-dopamine or anti-serotonin antibody, isoMnSOD detected; FIG. 2A, 2B
T3 sequence (P04179 25-183 isoform P04179-2 limits assumed): T1 sequence (P09671 with tags, fused parts or gaps DEL77-115) with A40V, H46Q, E66D, V75A, Q93R, R95H, S102P, T155M
Description: Covalent modification of the MnSOD-Exon3-deleted isoform was measured by a combined immunoprecipitation/western blot analysis. Immunoblots for detecting AA-DA, EPA-DA, DHA-DA, C18:4(ω-3)-DA adducts were performed using anti-dopamine rabbit polyclonal (Chemicon) and anti-serotonin goat polyclonal antibodies (ImmunoStar), respectively. After immunoprecipitating using an antibody against the inhibitor, isoMnSOD was detected as described above.

Compound	Inhibition [1]	binding to isoMnSOD (covalent modification) [11]	inhibition of mitochondrial peroxidase activity [8]	inhibition of peroxidative activity of isoMnSOD [9]	inhibition of pro-oxidant activity of isoMnSOD [10]	also measured
CCCCCCCC/C=C\CCCCCCCNC(=O)Cc1cc(O)ccc1O [2-(2,5-dihydroxy-phenyl)-N-heptadec-8-enyl-acetamide]	yes					
CCCCCCCC/C=C\CCCCCCCNC(=O)Cc1ccc(O)c(O)c1 [2-(3,4-dihydroxy-phenyl)-N-heptadec-8-enyl-acetamide]	yes					suppression of doxorubicin-induced AMP kinase activation ([2]; 1 mM doxorubicin and 4 μM compound overnight, FIG. 9 Lane 3): suppresses this activation; antigenicity of isoMnSOD with MnSOD E2/E4 peptide antibody and MnSOD antibody [3]: loss of antigenicity with the MnSOD E21E4 peptide antibody but not with the MnSOD antibody; Protection of hydrogen peroxide-mediated cell death [4]: Protection; cardio protection of doxorubicin-induced heart failure (LVDP, dP/dtmax, dP/dtmin) [5]: exerts cardio protection
COc1cccc2c1C(=O)c1c(O)c3c(c(O)c1C2=O)C[C@@](O)(C(=O)CO)C[C@@H]3O[C@H]1C[C@H](N)[C@H](O)[C@H](C)O1 [Doxorubicin]						Activation of AMP kinase by phosphorylation at Thr172 ([2]; 1 mM doxorubicin overnight, FIG. 9 Lane 2): Activation; isoMnSOD expression [6]: induced isoMnSOD expression; expression of altMnSOD report [7]: causes an increase
CC/C=C\C/C=C\C/C=C\C/C=C\C/C=C\CCCC(=O)NCCc1ccc(O)c(O)c1 [eicosapentaenoyl (EPA)-dopamine, eicosapentaenoyl dopamine]			did not inhibit peroxidase activity to the same effect	inhibit peroxidative activity more significantly than the other compounds	inhibit pro-oxidant activity of isoMnSOD	
CCCCC/C=C\C/C=C\C/C=C\C/C=C\CCCC(=O)NCCc1c[nH]c2ccc(O)cc12 [arachidonoyl-serotonin, arachidonoyl serotonin]		able to bind to isoMnSOD	inhibited the mitochondrial peroxidase activity		inhibit pro-oxidant activity of isoMnSOD	
Arachidonic acid-biotinimide	yes					

More lines, main results first:

Inhibition [1]	binding to isoMnSOD (covalent modification) [11]	Compound	inhibition of mitochondrial peroxidase activity [8]	inhibition of peroxidative activity of isoMnSOD [9]	inhibition of pro-oxidant activity of isoMnSOD [10]	also measured
yes		Prostaglandin A1-biotinimide				
	able to bind to isoMnSOD	C18:4(ω-3)-dopamine	inhibited the mitochondrial peroxidase activity	inhibit peroxidative activity more significantly than the other compounds	inhibit pro-oxidant activity of isoMnSOD	
	able to bind to isoMnSOD	CC/C=C\C/C=C\C/C=C\C/C=C\C/C=C\C/C=C\CCC(=O)NCCc1ccc(O)c(O)c1 [docosahexaenoyl (DHA)-dopamine, docosahexaenoyl dopamine]	inhibited the mitochondrial peroxidase activity	inhibit peroxidative activity more significantly than the other compounds	inhibit pro-oxidant activity of isoMnSOD	
no		COC1=C(OC)C(=O)C(CCCCCCCCCCO)=C(C)C1=O [Idebenone]				

— US8426644B2, “Compositions and methods for inhibiting an isoform of human manganese superoxide dismutase” (MitoTek, LLC, priority 2005, dated 2013)
